The source of these data is US7122547B1, “Anthranilic acid amides and the use thereof as medicaments” (Schering AG, priority 1998, dated 2006).

In one assay the target is VEGFR I (FLT) (Homo sapiens, UniProt P17948). As to the kind of experiment: Inhibition of FLT-1 kinase activity (33P-ATP, poly-(Glu4Tyr) phosphocellulose filter assay). It counts as biochemical. To be noted: 10 minutes at room temperature, KH = keine Hemmung = No inhibition. The method, then:
(§1) • Stock solutions • Stock solution A: 3 mmol of ATP in water, pH 7.0 (−70° C.) • Stock solution B: g-0.33P-ATP 1 mCi/100 μl • Stock solution C: poly-(Glu4Tyr) 10 mg/ml in water Solution for Dilutions • Substrate solvent: 10 mmol of DTT, 10 mmol of manganese chloride, 100 mmol of magnesium chloride • Enzyme solution: 120 mmol of tris/HCl, pH 7.5, 10 μm of sodium vanadium oxide Sample Application 1
(§2) Inhibition of the KDR- and FLT-1 kinase activity in the presence of the compounds according to the invention
(§3) It is thoroughly mixed and incubated for 10 minutes at room temperature. Then, 10 μl of stop solution (250 mmol of EDTA, pH 7.0) is added, mixed, and 10 μl of the solution is transferred to a P 81 phosphocellulose filter. Then, it is washed several times in 0.01 M phosphoric acid. The filter paper is dried, coated with Meltilex and measured in a microbeta counter.

A further assay addresses VEGFR II (KDR) (Homo sapiens, UniProt P35968). Kind of assay: Inhibition of KDR kinase activity (33P-ATP, poly-(Glu4Tyr) phosphocellulose filter assay). Format: biochemical. The following applies: 10 minutes at room temperature, KH = keine Hemmung = No inhibition. The method, then:
as §1, §2, §3

What is called IC50 is the point on the concentration scale where inhibition reaches its midpoint. Lower therefore signals greater potency in that assay.

Molecules are shown by their SMILES. Bounds are passed on as bounds.

Chain of VEGFR I (FLT) (P17948 27-1338, species assumed): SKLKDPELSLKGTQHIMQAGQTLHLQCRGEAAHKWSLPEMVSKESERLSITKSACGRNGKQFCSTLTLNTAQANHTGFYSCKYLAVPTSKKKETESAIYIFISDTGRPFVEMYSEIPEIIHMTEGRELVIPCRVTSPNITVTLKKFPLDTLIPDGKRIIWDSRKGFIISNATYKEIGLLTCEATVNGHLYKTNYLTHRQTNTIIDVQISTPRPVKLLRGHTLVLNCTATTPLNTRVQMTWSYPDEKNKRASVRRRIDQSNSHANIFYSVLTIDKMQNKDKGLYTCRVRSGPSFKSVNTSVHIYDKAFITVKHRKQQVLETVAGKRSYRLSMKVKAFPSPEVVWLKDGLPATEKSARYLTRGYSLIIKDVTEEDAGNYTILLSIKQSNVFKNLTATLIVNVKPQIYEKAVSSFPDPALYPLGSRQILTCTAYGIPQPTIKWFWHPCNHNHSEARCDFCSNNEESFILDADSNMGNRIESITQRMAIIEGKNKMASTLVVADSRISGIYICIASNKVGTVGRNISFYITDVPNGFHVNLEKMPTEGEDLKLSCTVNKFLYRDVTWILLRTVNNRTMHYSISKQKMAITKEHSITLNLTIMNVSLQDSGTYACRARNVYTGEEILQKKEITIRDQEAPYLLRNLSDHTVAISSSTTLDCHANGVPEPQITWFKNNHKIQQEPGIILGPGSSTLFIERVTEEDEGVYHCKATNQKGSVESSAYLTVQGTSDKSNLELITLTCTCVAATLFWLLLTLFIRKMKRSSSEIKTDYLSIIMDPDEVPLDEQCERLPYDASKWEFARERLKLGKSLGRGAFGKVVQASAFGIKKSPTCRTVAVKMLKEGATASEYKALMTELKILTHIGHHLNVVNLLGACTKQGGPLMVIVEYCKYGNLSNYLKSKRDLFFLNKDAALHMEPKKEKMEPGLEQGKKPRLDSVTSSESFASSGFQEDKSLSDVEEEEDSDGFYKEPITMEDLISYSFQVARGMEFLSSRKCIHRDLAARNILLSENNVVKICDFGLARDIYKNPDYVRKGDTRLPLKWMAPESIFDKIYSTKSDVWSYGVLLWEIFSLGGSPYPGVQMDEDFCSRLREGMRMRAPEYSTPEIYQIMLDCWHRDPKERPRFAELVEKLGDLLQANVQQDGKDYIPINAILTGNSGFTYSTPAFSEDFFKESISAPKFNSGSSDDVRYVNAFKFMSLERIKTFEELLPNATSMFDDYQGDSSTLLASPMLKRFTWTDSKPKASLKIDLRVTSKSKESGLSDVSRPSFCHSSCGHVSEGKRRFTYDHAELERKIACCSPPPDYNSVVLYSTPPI
Chain of VEGFR II (KDR) (P35968 20-1356, species assumed): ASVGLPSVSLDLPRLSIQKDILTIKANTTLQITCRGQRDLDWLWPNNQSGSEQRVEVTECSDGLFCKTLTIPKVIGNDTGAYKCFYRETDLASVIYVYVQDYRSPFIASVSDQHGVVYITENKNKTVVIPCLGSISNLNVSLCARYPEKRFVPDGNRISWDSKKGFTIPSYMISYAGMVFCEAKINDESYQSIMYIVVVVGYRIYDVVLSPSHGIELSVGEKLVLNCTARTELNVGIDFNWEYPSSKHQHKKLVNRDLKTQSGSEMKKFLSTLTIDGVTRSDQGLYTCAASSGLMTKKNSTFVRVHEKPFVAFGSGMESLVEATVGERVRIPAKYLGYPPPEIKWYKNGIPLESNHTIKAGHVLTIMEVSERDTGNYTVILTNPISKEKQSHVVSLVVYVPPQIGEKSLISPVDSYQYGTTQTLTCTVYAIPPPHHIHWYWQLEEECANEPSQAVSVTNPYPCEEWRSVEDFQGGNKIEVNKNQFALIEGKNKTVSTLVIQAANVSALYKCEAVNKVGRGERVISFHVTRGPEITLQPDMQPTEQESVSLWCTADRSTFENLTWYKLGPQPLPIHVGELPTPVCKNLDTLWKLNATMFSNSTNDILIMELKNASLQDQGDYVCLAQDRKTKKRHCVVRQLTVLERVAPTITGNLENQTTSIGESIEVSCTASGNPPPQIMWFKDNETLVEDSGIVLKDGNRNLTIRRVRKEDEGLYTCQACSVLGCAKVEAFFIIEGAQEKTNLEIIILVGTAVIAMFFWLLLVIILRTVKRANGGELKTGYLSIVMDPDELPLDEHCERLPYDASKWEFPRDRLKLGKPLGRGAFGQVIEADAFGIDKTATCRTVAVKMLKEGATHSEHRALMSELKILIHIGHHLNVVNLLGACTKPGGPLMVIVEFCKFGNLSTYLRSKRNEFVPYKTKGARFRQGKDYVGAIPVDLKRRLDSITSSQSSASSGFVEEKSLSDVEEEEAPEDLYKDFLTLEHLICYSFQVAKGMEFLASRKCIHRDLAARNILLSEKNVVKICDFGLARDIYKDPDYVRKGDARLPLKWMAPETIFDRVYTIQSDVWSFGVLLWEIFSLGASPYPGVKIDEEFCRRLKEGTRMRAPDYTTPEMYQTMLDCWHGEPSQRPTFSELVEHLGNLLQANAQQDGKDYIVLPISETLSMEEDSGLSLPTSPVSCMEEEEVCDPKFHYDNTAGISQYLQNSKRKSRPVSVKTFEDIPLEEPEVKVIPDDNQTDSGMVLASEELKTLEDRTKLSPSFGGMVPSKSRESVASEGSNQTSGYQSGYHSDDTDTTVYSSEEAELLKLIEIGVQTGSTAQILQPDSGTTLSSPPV

As for `O=C(Nc1cc(-c2ccccc2)[nH]n1)c1ccccc1NCc1ccncc1` [Example 2.43], the half-inhibitory concentration (IC50) was 20 nM against VEGFR I (FLT) and 50 nM on VEGFR II (KDR).
In the case of `O=C(Nc1ccc(Cl)cn1)c1ccccc1NCc1ccncc1` [Example 2.39], the half-maximal inhibitory concentration (IC50) against VEGFR I (FLT) amounted to 50 nM; at VEGFR II (KDR) it was 30 nM.
The corresponding values for `O=C(Nc1nc2ccc(OC(F)(F)F)cc2s1)c1ccccc1NCc1ccncc1` [Example 8.9] are 500 nM and 500 nM.
On to `O=C(Nc1ccc2nc[nH]c2c1)c1ccccc1NCc1ccncc1` [Example 8.14], for which the IC50 came to 500 nM on VEGFR I (FLT) and 200 nM on VEGFR II (KDR).
Take `O=C(Nc1ccc2ncsc2c1)c1ccccc1NCc1ccncc1` [Example 8.8]: the IC50 against VEGFR I (FLT) was 50 nM; at VEGFR II (KDR), 20 nM.
For the compound `O=C(NCc1ccncc1)c1ccccc1NCc1ccncc1` [Example 2.10], at VEGFR I (FLT), half-maximal inhibition (IC50) was put at 3000 nM.
`O=C(NCCCc1ccccc1)c1ccccc1NCc1ccncc1` [Example 2.0, N-(3-phenylprop-1-yl)-N2-(4-pyridylmethyl)-anthranilic acid amide]: the IC50 at VEGFR I (FLT) and on VEGFR II (KDR) was 50 nM throughout.
Take `O=C(Nc1ccc2nsnc2c1)c1ccccc1NCc1ccncc1` [Example 2.23]: the IC50 at VEGFR I (FLT) amounted to 20 nM; at VEGFR II (KDR) it was 670 nM.
Regarding `O=C(NCc1ccc2ccccc2n1)c1ccccc1NCc1ccncc1` [Example 2.48], the IC50 against VEGFR I (FLT) was determined as 100 nM; on VEGFR II (KDR) it was 500 nM.
As to `O=C(Nc1ncc(Cl)cn1)c1ccccc1NCc1ccncc1` [Example 2.32], the IC50 on VEGFR I (FLT) and against VEGFR II (KDR) was 20 nM throughout.
In the case of `COc1ccc(CCNC(=O)c2ccccc2NCc2ccncc2)cc1OC` [Example 2.21], the half-inhibitory concentration (IC50) worked out at 2000 nM against VEGFR I (FLT) and 300 nM on VEGFR II (KDR).
As to `O=C(NCCc1ccc(Cl)cc1)c1ccccc1NCc1ccncc1` [Example 2.3], the IC50 against VEGFR I (FLT) and at VEGFR II (KDR) was 20 nM each time.
On to `O=C(Nc1nccc2ccccc12)c1ccccc1NCc1ccncc1` [Example 2.31], for which the half-maximal inhibitory concentration (IC50) worked out at 100 nM on VEGFR I (FLT) and 270 nM on VEGFR II (KDR).
Consider `O=C(Nc1cc2ccccc2cn1)c1cc(F)ccc1NCc1ccncc1` [Example 2.63], for which the IC50 against VEGFR II (KDR) amounted to 0.3 nM.
`O=C(N[C@H]1CCCc2ccccc21)c1ccccc1NCc1ccncc1` [Example 2.45] gave an IC50 against VEGFR I (FLT) of 100 nM.
Regarding `O=C(Nc1ccc2cn[nH]c2c1)c1ccccc1NCc1ccncc1` [Example 8.10], the IC50 against VEGFR I (FLT) and against VEGFR II (KDR) was 20 nM in each case.
On VEGFR I (FLT), `CN(NC(=O)c1ccccc1NCc1ccncc1)c1ccccc1` [Example 2.5] came in with a half-maximal inhibitory concentration (IC50) of 1000 nM.
As for `O=C(Nc1cc2ccccc2c(Nc2cc3ccccc3c(Br)n2)n1)c1ccccc1NCc1ccncc1` [Example 2.33], the IC50 on VEGFR I (FLT) amounted to 1000 nM; at VEGFR II (KDR) it was 2000 nM.
The corresponding values for `O=C(Nc1nc2ccc(F)cc2s1)c1ccccc1NCc1ccncc1` [Example 8.16] are 200 nM and 300 nM.
For `CC(CNC(=O)c1ccccc1NCc1ccncc1)c1ccc(Cl)cc1` (stereo not drawn) [Example 2.16], in that order: 100 nM and 200 nM.
Take `O=C(NC1CCCc2ccccc21)c1ccccc1NCc1ccncc1` (stereo not drawn) [Example 2.13]: the half-inhibitory concentration (IC50) at VEGFR I (FLT) came out at 700 nM; against VEGFR II (KDR) it was 3000 nM.
Regarding `CC(NC(=O)c1ccccc1NCc1ccncc1)c1cccc2ccccc12` (stereo not drawn) [Example 2.12], the concentration for half-maximal inhibition (IC50) against VEGFR I (FLT) worked out at 700 nM; at VEGFR II (KDR) it was 3000 nM.
The corresponding values for `O=C(N[C@@H]1CCCc2ccccc21)c1ccccc1NCc1ccncc1` [Example 2.24] are 500 nM and more than 1000 nM.
Regarding `O=C(Nc1ccc2[nH]ncc2c1)c1ccccc1NCc1ccncc1` [Example 8.0, N-(indazol-5-yl) N2-(4-pyridylmethyl)-anthranilic acid amide], the 50% inhibitory concentration (IC50) against VEGFR I (FLT) and against VEGFR II (KDR) was 40 nM each time.
At VEGFR I (FLT), `O=C(Nc1ccccn1)c1ccccc1NCc1ccncc1` [Example 2.37] returned a concentration for half-maximal inhibition (IC50) of 200 nM.
Compound `CC(NC(=O)c1ccccc1NCc1ccncc1)c1ccc(Cl)cc1` (stereo not drawn) [Example 2.15] had a half-inhibitory concentration (IC50) against VEGFR I (FLT) of 1000 nM.
As for `O=C(NC1Cc2ccccc2C1)c1ccccc1NCc1ccncc1` [Example 2.2], the IC50 against VEGFR I (FLT) was 100 nM; on VEGFR II (KDR), 500 nM.
For `O=C(Nc1nc2ccccc2[nH]1)c1ccccc1NCc1ccncc1` [Example 8.2], the IC50 on VEGFR I (FLT) and against VEGFR II (KDR) was 200 nM throughout.
With `O=C(NCc1ccc(Cl)cc1)c1ccccc1NCc1ccncc1` [Example 2.1], the IC50 on VEGFR I (FLT) is 10 nM; at VEGFR II (KDR), 300 nM.
For `O=C(Nc1cccc2ncccc12)c1ccccc1NCc1ccncc1` [Example 2.26], in that order: 200 nM and 200 nM.
Take `O=C(Nc1cc2ccccc2cn1)c1ccccc1NCc1ccncc1` [Example 2.54]: the 50% inhibitory concentration (IC50) against VEGFR I (FLT) turned out to be 20 nM; against VEGFR II (KDR), 5 nM.
For the compound `O=C(Nc1ccncc1)c1ccccc1NCc1ccncc1` [Example 8.11], the 50% inhibitory concentration (IC50) on VEGFR I (FLT) turned out to be 200 nM.
`COc1ccc(CNc2ccccc2C(=O)NCc2ccc(Cl)cc2)cc1` [Example 3.0, N-(4-chlorobenzyl)-N-2-(4-methoxybenzyl)anthranilamide] showed a 50% inhibitory concentration (IC50) on VEGFR II (KDR) of 3000 nM.
As to `CC(Cc1ccc(Cl)cc1)NC(=O)c1ccccc1NCc1ccncc1` (stereo not drawn) [Example 2.17], the figures for the IC50 on VEGFR I (FLT) and on VEGFR II (KDR) were 400 nM and 500 nM, respectively.
As to `O=C(Nc1cccc2cnccc12)c1ccccc1NCc1ccncc1` [Example 2.55], the figures for the IC50 on VEGFR I (FLT) and at VEGFR II (KDR) were 300 nM and 200 nM, respectively.
With `O=C(NCCc1ccc(Cl)cc1)c1ccccc1NCc1ccc(O)cc1` [Example 4.0, N-[2-(4-chlorophenyl)ethyl]-N-2-(4-hydroxybenzyl)anthranilamide], the IC50 against VEGFR I (FLT) worked out at 500 nM; at VEGFR II (KDR) it was 200 nM.
For `Cn1c(NC(=O)c2ccccc2NCc2ccncc2)nc2ccccc21` [Example 8.12], in that order: 200 nM and 100 nM.
For `O=C(Nc1ccc2c(c1)NCCC2)c1ccccc1NCc1ccncc1` [Example 2.49], in that order: 80 nM and 50 nM.
`CC(C)(NC(=O)c1ccccc1NCc1ccncc1)c1ccccc1` [Example 2.19]: the half-inhibitory concentration (IC50) against VEGFR I (FLT) and against VEGFR II (KDR) was more than 10000 nM throughout.
On to `O=C(Nc1ccc2[nH]ccc2c1)c1ccccc1NCc1ccncc1` [Example 2.56], for which the IC50 on VEGFR I (FLT) amounted to 40 nM; on VEGFR II (KDR) it was 20 nM.
The corresponding values for `CC(CNC(=O)c1ccccc1NCc1ccncc1)c1ccccc1` (stereo not drawn) [Example 2.18] are 300 nM and 500 nM.
As for `O=C(NCCCc1ccc(Cl)cc1)c1ccccc1NCc1ccncc1` [Example 2.14], the concentration for half-maximal inhibition (IC50) turned out to be 500 nM against VEGFR I (FLT) and 300 nM on VEGFR II (KDR).
Consider `O=C(NCc1cccc2ccccc12)c1ccccc1NCc1ccncc1` [Example 2.11], for which the concentration for half-maximal inhibition (IC50) against VEGFR I (FLT) is 20 nM; at VEGFR II (KDR), 200 nM.
Turning to `O=C(NNc1ccc(Cl)cc1)c1ccccc1NCc1ccncc1` [Example 2.4], the IC50 against VEGFR I (FLT) was found to be 20 nM; at VEGFR II (KDR), 100 nM.
The corresponding values for `O=C(Nc1nnc(C(F)(F)F)s1)c1ccccc1NCc1ccncc1` [Example 2.41] are 1000 nM and 300 nM.
As for `O=C(NC1CCC(c2ccccc2)CC1)c1ccccc1NCc1ccncc1` (stereo not drawn) [Example 2.44], the results for the half-maximal inhibitory concentration (IC50) against VEGFR I (FLT) and at VEGFR II (KDR) were 300 nM and 200 nM, respectively.
The corresponding values for `COc1ccc(CCNC(=O)c2ccccc2NCc2ccncc2)cc1` [Example 2.35] are 98 nM and 20 nM.
As to `O=C(Nc1ccc2ccccc2n1)c1ccccc1NCc1ccncc1` [Example 2.53], the half-inhibitory concentration (IC50) on VEGFR I (FLT) and against VEGFR II (KDR) was 20 nM in each case.
For the compound `O=C(Nc1ccc2[nH]nnc2c1)c1ccccc1NCc1ccncc1` [Example 8.15], the IC50 against VEGFR I (FLT) and against VEGFR II (KDR) was 200 nM in each case.
Consider `O=C(NCc1ccc(C(F)(F)F)cc1)c1ccccc1NCc1ccncc1` [Example 2.42], for which the IC50 at VEGFR I (FLT) was 500 nM; against VEGFR II (KDR) it was 100 nM.
With `O=C(Nc1nc2c(Cl)cccc2s1)c1ccccc1NCc1ccncc1` [Example 8.17], on VEGFR II (KDR), half-maximal inhibition (IC50) was put at 50 nM.
For `O=C(Nc1cccc2cccnc12)c1ccccc1NCc1ccncc1` [Example 2.34], the half-maximal inhibitory concentration (IC50) is 2000 nM against VEGFR I (FLT) and 100 nM against VEGFR II (KDR).
Take `O=C(NC1CCc2cc(Cl)ccc21)c1ccccc1NCc1ccncc1` (stereo not drawn) [Example 2.20]: the half-inhibitory concentration (IC50) on VEGFR I (FLT) worked out at 4000 nM.
Compound `O=C(Nc1cccnc1)c1ccccc1NCc1ccncc1` [Example 2.40] registered an IC50 against VEGFR I (FLT) of 500 nM.
On to `O=C(Nc1nc2ccc(Cl)cc2s1)c1ccccc1NCc1ccncc1` [Example 8.13], for which the half-inhibitory concentration (IC50) at VEGFR I (FLT) and on VEGFR II (KDR) was 500 nM in each case.
On to `O=C(NCc1cccnc1)c1ccccc1NCc1ccncc1` [Example 2.38], for which the values for the IC50 at VEGFR I (FLT) and on VEGFR II (KDR) were 7000 nM and 200 nM, respectively.
At VEGFR I (FLT), `O=C(Nc1ccc2ncccc2c1)c1ccccc1NCc1ccncc1` [Example 2.52] gave an IC50 of 50 nM.
As for `O=C(NCc1nccc2ccccc12)c1ccccc1NCc1ccncc1` [Example 2.47], the half-inhibitory concentration (IC50) on VEGFR I (FLT) came to 20 nM.
Still for that read-out and setting: to `COc1cc2c(cc1OC)CC(NC(=O)c1ccccc1NCc1ccncc1)CC2` (stereo not drawn) [Example 2.9] belongs 5000 nM.
In the case of `O=C(NCCc1c[nH]c2cc(F)ccc12)c1ccccc1NCc1ccncc1` [Example 2.8], the results for the 50% inhibitory concentration (IC50) at VEGFR I (FLT) and on VEGFR II (KDR) were 500 nM and 100 nM, respectively.
The corresponding values for `O=C(NCc1cccs1)c1ccccc1NCc1ccncc1` [Example 2.6] are 200 nM and 2000 nM.
